Experimental data as given in patent publication US8624040B2, “Substituted hydroxamic acids and uses thereof” (Millennium Pharmaceuticals, Inc., priority 2009, dated 2014).

What follows are compounds tested against T1, purified human HDAC6 (Homo sapiens, UniProt Q9UBN7) (assay: HDAC6 Enzyme Assay). Details: enzyme inhibition, substrate Ac-Arg-Gly-Lys(Ac)-AMC, 1 hour at 30° C.
T1 construct: purchased BPS Bioscience 5006
T1 sequence (Q9UBN7 1-1215): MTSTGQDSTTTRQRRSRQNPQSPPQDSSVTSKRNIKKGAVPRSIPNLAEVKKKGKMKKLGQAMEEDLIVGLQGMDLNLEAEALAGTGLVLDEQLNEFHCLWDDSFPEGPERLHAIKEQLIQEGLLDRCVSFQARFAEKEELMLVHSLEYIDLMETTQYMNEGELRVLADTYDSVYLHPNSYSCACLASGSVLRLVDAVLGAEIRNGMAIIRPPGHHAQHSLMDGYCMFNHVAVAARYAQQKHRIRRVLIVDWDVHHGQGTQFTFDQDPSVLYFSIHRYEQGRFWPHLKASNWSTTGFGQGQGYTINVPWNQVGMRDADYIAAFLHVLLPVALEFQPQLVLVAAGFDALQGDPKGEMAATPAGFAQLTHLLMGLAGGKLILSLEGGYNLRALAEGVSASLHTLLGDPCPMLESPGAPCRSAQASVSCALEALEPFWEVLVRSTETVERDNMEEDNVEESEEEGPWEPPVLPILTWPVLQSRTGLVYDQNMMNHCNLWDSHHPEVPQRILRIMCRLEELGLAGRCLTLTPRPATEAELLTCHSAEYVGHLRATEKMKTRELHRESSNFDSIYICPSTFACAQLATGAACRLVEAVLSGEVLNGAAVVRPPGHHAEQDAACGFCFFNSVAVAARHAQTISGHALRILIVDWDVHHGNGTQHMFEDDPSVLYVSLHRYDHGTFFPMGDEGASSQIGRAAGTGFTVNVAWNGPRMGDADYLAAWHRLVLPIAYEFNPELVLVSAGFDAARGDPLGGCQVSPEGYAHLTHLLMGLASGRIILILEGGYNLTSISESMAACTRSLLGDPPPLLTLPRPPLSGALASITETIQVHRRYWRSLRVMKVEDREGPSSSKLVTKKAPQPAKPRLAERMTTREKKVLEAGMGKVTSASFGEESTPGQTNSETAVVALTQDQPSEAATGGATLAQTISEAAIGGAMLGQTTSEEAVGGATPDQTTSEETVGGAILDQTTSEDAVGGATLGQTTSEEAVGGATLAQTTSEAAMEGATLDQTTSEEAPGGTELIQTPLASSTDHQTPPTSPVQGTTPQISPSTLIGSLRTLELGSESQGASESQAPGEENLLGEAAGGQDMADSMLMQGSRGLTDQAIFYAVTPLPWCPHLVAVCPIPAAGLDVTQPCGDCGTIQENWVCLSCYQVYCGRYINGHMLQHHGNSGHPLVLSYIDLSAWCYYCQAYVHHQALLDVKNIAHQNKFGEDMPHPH
Type: biochemical
Method: To measure the inhibition of HDAC6 activity, purified human HDAC6 (BPS Bioscience; Cat. No. 5006) is incubated with substrate Ac-Arg-Gly-Lys(Ac)-AMC peptide (Bachem Biosciences; Cat. No. I-1925) for 1 hour at 30° C. in the presence of test compounds or vehicle DMSO control. The reaction is stopped with the HDAC inhibitor trichostatin A (Sigma; Cat. No. T8552) and the amount of Arg-Gly-Lys-AMC generated is quantitated by digestion with trypsin (Sigma; Cat. No. T1426) and subsequent measurement of the amount of AMC released using a fluorescent plate reader (Pherastar; BMG Technologies) set at Ex 340 nm and Em 460 nm. Concentration response curves are generated by calculating the fluorescence increase in test compound-treated samples relative to DMSO-treated controls, and enzyme inhibition (IC50) values are determined from those curves.

| Compound | IC50 [nM] |
| --- | --- |
| Cc1nc(C)c(CC(=O)N2CCc3cc(C(=O)NO)sc3C2)s1 [Compound 47, 6-[(2,4-dimethyl-1,3-thiazol-5-yl)acetyl]-N-hydroxy-4,5,6,7-tetrahydrothieno[2,3-c]pyridine-2-carboxamide] | 50 to 100 |
| Cc1ncc(C(=O)N2CCc3cc(C(=O)NO)sc3C2)c(-c2ccccc2)n1 [Compound 48, N-hydroxy-6-(2-methyl-4-phenylpyrimidine-5-carbonyl)-4,5,6,7-tetrahydrothieno[2,3-c]pyridine-2-carboxamide] | 50 to 100 |
| O=C(NO)c1cc2c(s1)CN(C(=O)Cc1cc(F)cc(F)c1)CC2 [Compound 52, 6-(2-(3,5-difluorophenyl)acetyl)-N-hydroxy-4,5,6,7-tetrahydrothieno[2,3-c]pyridine-2-carboxamide] | 50 to 100 |
| NC(=O)CSc1ccsc1C(=O)N1CCc2cc(C(=O)NO)sc2C1 [Compound 56, 6-({3-[(2-amino-2-oxoethyl)sulfanyl]-2-thienyl}carlbonyl)-N-hydroxy-4,5,6,7-tetrahydrothieno[2,3-c]pyridine-2-carboxamide] | > 1000 |
| Cc1noc(C)c1CC(=O)N1CCc2cc(C(=O)NO)sc2C1 [Compound 62, 6-(2-(3,5-dimethylisoxazol-4-yl)acetyl)-N-hydroxy-4,5,6,7-tetrahydrothieno[2,3-c]pyridine-2-carboxamide] | 50 to 100 |
| Cc1nc(CC(=O)N2CCc3cc(C(=O)NO)sc3C2)cs1 [Compound 75, N-hydroxy-6-(2-(2-methylthiazol-4-yl)acetyl)-4,5,6,7-tetrahydrothieno[2,3-c]pyridine-2-carboxamide] | 50 to 100 |
| Cc1cccc(NC(=O)N2CCc3cc(C(=O)NO)sc3C2)c1 [Compound 80, N^2-hydroxy-N^6-(3-methylphenyl)-4,7-dihydrothieno[2,3-c]pyridine-2,6(5H)-dicarboxamide] | < 50 |
| O=C(NO)c1cc2c(s1)CN(C(=O)c1cccc(O)n1)CC2 [Compound 81, N-hydroxy-6-[(6-hydroxypyridin-2-yl)carbonyl]-4,5,6,7-tetrahydrothieno[2,3-c]pyridine-2-carboxamide] | 50 to 100 |
| Cn1nc(C(C)(C)C)cc1C(=O)N1CCc2cc(C(=O)NO)sc2C1 [Compound 88, 6-[(3-tert-butyl-1-methyl-1H-pyrazol-5-yl)carbonyl]-N-hydroxy-4,5,6,7-tetrahydrothieno[2,3-c]pyridine-2-carboxamide] | < 50 |
| O=C(NO)c1cc2c(s1)CN(C(=O)CSc1cccc(C(F)(F)F)c1)CC2 [Compound 89, N-hydroxy-6-({[3-(trifluoromethyl)phenyl]sulfanyl}acetyl)-4,5,6,7-tetrahydrothieno[2,3-c]pyridine-2-carboxamide] | < 50 |
| Cc1ccoc1C(=O)N1CCc2cc(C(=O)NO)sc2C1 [Compound 94, N-hydroxy-6-(3-methyl-2-furoyl)-4,5,6,7-tetrahydrothieno[2,3-c]pyridine-2-carboxamide] | < 50 |
| O=C(NO)c1cc2c(s1)CN(C(=O)c1ccc3ncccc3c1)CC2 [Compound 95, N-hydroxy-6-(quinoline-6-carbonyl)-4,5,6,7-tetrahydrothieno[2,3-c]pyridine-2-carboxamide] | < 50 |
| Cc1ncsc1C(=O)N1CCc2cc(C(=O)NO)sc2C1 [Compound 98, N-hydroxy-6-[(4-methyl-1,3-thiazol-5-yl)carbonyl]-4,5,6,7-tetrahydrothieno[2,3-c]pyridine-2-carboxamide] | < 50 |
| O=C(NO)c1cc2c(s1)CN(C(=O)c1cccc3cccnc13)CC2 [Compound 99, N-hydroxy-6-(quinoline-8-carbonyl)-4,5,6,7-tetrahydrothieno[2,3-c]pyridine-2-carboxamide] | < 50 |
| COc1cc(OC)nc(C(=O)N2CCc3cc(C(=O)NO)sc3C2)n1 [Compound 100, 6-[(4,6-dimethoxypyrimidin-2-yl)carbonyl]-N-hydroxy-4,5,6,7-tetrahydrothieno[2,3-c]pyridine-2-carboxamide] | 50 to 100 |
| Cc1ccc(CNC(=O)N2CCc3cc(C(=O)NO)sc3C2)cc1 [Compound 103, N2-hydroxy-N-6-(4-methylbenzyl)-4,5-dihydrothieno[2,3-c]pyridine-2,6(5H)-dicarboxamide] | < 50 |

More lines, now with the values ahead:

| IC50 [nM] | Compound |
| --- | --- |
| < 50 | O=C(NO)c1cc2c(s1)CCN(C(=O)c1cccc3cccnc13)C2 [Compound 30, N-hydroxy-5-(quinolin-8-ylcarbonyl)-4,5,6,7-tetrahydrothieno[3,2-c]pyridine-2-carboxamide] |
| < 50 | O=C(NO)c1cc2c(s1)CCN(C(=O)C1CCCCC1)C2 [Compound 31, 5-(cyclohexanecarbonyl)-N-hydroxy-4,5,6,7-tetrahydrothieno[3,2-c]pyridine-2-carboxamide] |
| < 50 | COc1cc(OC)nc(-c2ccc(C(=O)N3CCc4sc(C(=O)NO)cc4C3)cc2)n1 [Compound 32, 5-(4-(4,6-dimethoxypyrimidin-2-yl)benzoyl)-N-hydroxy-4,5,6,7-tetrahydrothieno[3,2-c]pyridine-2-carboxamide] |
| < 50 | O=C(NO)c1cc2c(s1)CCN(C(=O)C13CC4CC(CC(C4)C1)C3)C2 [Compound 33, 5-(adamantan-1-ylcarbonyl)-N-hydroxy-4,5,6,7-tetrahydrothieno[3,2-c]pyridine-2-carboxamide] |
| < 50 | O=C(NO)c1cc2c(s1)CCN(S(=O)(=O)c1ccc(C(F)(F)F)cc1)C2 [Compound 34, N-hydroxy-5-{[4-(trifluoromethyl)phenyl]sulfonyl}-4,5,6,7-tetrahydrothieno[3,2-c]pyridine-2-carboxamide] |
| < 50 | O=C(NO)c1cc2c(s1)CN(C(=O)Nc1ccc(-c3ccccc3)s1)CC2 [Compound 40, N^2-hydroxy-N^6-(5-phenyl-2-thienyl)-4,7-dihydrothieno[2,3-c]pyridine-2,6(5H)-dicarboxamide] |
| < 50 | O=C(NO)c1cc2c(s1)CN(C(=O)c1ccco1)CC2 [Compound 42, 6-(furan-2-carbonyl)-N-hydroxy-4,5,6,7-tetrahydrothieno[2,3-c]pyridine-2-carboxamide] |
| < 50 | Cc1cc(C(=O)N2CCc3cc(C(=O)NO)sc3C2)ccc1F [Compound 51, 6-(4-fluoro-3-methylbenzoyl)-N-hydroxy-4,5,6,7-tetrahydrothieno[2,3-c]pyridine-2-carboxamide] |
| < 50 | O=C(NO)c1cc2c(s1)CN(C(=O)Nc1cccc(C(F)(F)F)c1)CC2 [Compound 54, N^2-hydroxy-N^6-[3-(trifluoromethyl)phenyl]-4,7-dihydrothieno[2,3-c]pyridine-2,6(5H)-dicarboxamide] |
| < 50 | CC(C)(C)c1ccc(C(=O)N2CCc3cc(C(=O)NO)sc3C2)cc1 [Compound 64, 6-(4-tert-butylbenzoyl)-N-hydroxy-4,5,6,7-tetrahydrothieno[2,3-c]pyridine-2-carboxamide] |
| < 50 | Cc1oc(-c2ccccc2)nc1CC(=O)N1CCc2cc(C(=O)NO)sc2C1 [Compound 65, N-hydroxy-6-[(5-methyl-2-phenyl-1,3-oxazol-4-yl)acetyl]-4,5,6,7-tetrahydrothieno[2,3-c]pyridine-2-carboxamide] |
| < 50 | Cc1oc(C(C)(C)C)cc1C(=O)N1CCc2cc(C(=O)NO)sc2C1 [Compound 67, 6-(5-tert-butyl-2-methyl-3-furoyl)-N-hydroxy-4,5,6,7-tetrahydrothieno[2,3-c]pyridine-2-carboxamide] |
| < 50 | O=C(NO)c1cc2c(s1)CN(C(=O)NC1CCCCC1)CC2 [Compound 76, N^6-cyclohexyl-N^2-hydroxy-4,7-dihydrothieno[2,3-c]pyridine-2,6(5H)-dicarboxamide] |
